Measurements from patent US9102636B2, “Analgesic compounds, compositions, and uses thereof” (Galleon Pharmaceuticals, Inc., priority 2010, dated 2015).
“And” between values parts separate entries of the source, which are not always exact repeats. Equal values may be shown once. “Also recorded” adds a separate entry of the source.

How the values were obtained:
[1] = L-012 assay: inhibition of SIN-1 generated peroxynitrite induced luminescence/fluorescence of L-012; format: biochemical; conditions: 15 minute time point; average of three plates
Description: Luminol like compound “L-012” is a chemilumescent probe that is activated by the presence of a ROS and/or RNS such as peroxynitrite. In this assay L-012 was oxidized by the addition of 3-Morpholino-sydnonimine (“SIN-1”), a known peroxynitrite generator. The emitted fluorescence was directly proportional to the concentration of SIN-1. The compounds of the invention were then assessed for their ability to scavenge peroxynitrite by blocking the increase of peroxynitrite induced fluorescence. Concentrations of compound producing 50% inhibition of the fluorescence signal (IC50 values) were calculated by testing the compounds of the invention at various concentrations and averaging the IC50 of three plates.
The following solutions were added to white polystyrene, non-sterile 96-well plate (Costar #3912): 196 μL of 50 μM L-012; 2 μL of the test compound; and 24 μL of 500 mM SIN-1. Fresh stock of 50 μM L-012 in PBS pH 7.4 was made for each 96 well plate that was analyzed. The plates were read in a FlexStation3 (Molecular Devices) using the luminescent mode at 37° C. for 30 min, with a measurement every 30 seconds and an integration time of 100 msec.
Luminescence signal was recorded by the FlexStation3 kinetically at 37° C. for 30 minutes, with a measurement every 30 seconds and an integration time of 100 msec. The data in rows A and H were dropped from each plate to exclude the possibility of an ‘edge effect’. Thus, each test compound had 3 replicates per plate.

[2] = test system: FCA induced tactile allodynia; experiment: FCA induced tactile allodynia (electronic von Frey); format: in vivo, rat
Description: (§1) Compound 2 was evaluated in the rat Freund's complete adjuvant (FCA) model of inflammatory pain. The rat Freund's complete adjuvant (FCA) intraplantar model of inflammatory pain produces behaviors similar to those observed in patients and has been widely used to assess novel pharmacological treatments (Lam et al., 2008, J Ethnopharmacol. 120:44-50). The positive control was celecoxib (TRC, Montreal), and the negative control was vehicle (0.5% methyl cellulose, in phosphate buffered saline). […] The Hargreaves apparatus was obtained from Ugo Basile, Italy. The Freund's complete adjuvant was obtained from Sigma, St. Louis, and the electronic von frey was obtained from Stoelting, Ill. For this assay, paw withdrawal latency to a thermal stimulus was assessed using a radiant heat source (Ugo Basile, Italy) aimed at the plantar surface of the left hind paw (Hargreaves test; […] Paw withdrawal thresholds to a non-noxious tactile stimulus was assessed using an electronic von Frey apparatus that presented an increasing mechanical force to the plantar surface of the hind paw. Paw volume was measured by displacement of water and assuming a tissue density equal to that of water. […] Celecoxib (30 mg/kg p.o.) served as the positive control. […] After induction of anesthesia, the injection site was prepared in a sterile manner and 100 μl of a 50% suspension of FCA injected. After injection, animals were weighed and allowed to recover before being returned to their home cages. Statistical significance was determined on untransformed data using a two-way analysis of variance (Graphpad Prism, NC). Significant main effects were analyzed further by subsequent Bonferronni post-hoc test. The level of significance was set at p<0.05. Data are shown as mean±S.E.M. (with an asterisk to denote significance as compared to vehicle treated controls).

[3] = Oral pharmacokinetics (Tmax) in rats; conditions: rat, in vivo, given orally
[4] = test system: FCA induced edema; experiment: FCA induced edema (paw volume); format: in vivo, rat
Description: as §1

[5] = test system: hyperalgesia following incisional surgery; experiment: Incisional hyperalgesia, dosing at conclusion of surgery; format: in vivo; conditions: rat; IV at conclusion of surgical incision; FIG. 9

CC1(C)SC(Nc2ccccc2O)=N[C@@H]1C(=O)O [Compound 2, (R)-2-(2-hydroxyphenylamino)-thiazoline-5,5-dimethyl-4-carboxylic acid]
IC50 [1]: 130 nM | Paw withdrawl threshold ([2]; 30 (min post-dose), 30 mg/kg p.o. 24 hours post-FCA, 30 mg/kg): 19.3 g and 32.6 g and 27.3 g and 30.2 g and 26.3 g and 19.5 g | Paw withdrawl threshold ([2]; 30 (min post-dose), 100 mg/kg p.o. 24 hours post-FCA, 100 mg/kg): 28.6 g and 27.9 g and 19.3 g and 34.6 g and 31.6 g and 21 g | Paw withdrawl threshold ([2]; 60 (min post-dose), 3 mg/kg p.o. 24 hours post-FCA, 3 mg/kg): 22 g and 16.5 g and 21.4 g and 15.7 g and 22.3 g and 18 g | Paw withdrawl threshold ([2]; 60 (min post-dose), 30 mg/kg p.o. 24 hours post-FCA, 30 mg/kg): 24 g and 24.2 g and 26.5 g and 21.6 g and 27.4 g and 31.1 g | Paw withdrawl threshold ([2]; 60 (min post-dose), 100 mg/kg p.o. 24 hours post-FCA, 100 mg/kg): 31.2 g and 27.5 g and 35.3 g and 29.1 g and 30.3 g and 34.6 g | Paw withdrawl threshold ([2]; BL(D1), 24 hours post-FCA before dosing, 3 mg/kg group, 3 mg/kg): 20.5 g and 15.3 g and 18.5 g and 16.5 g and 17.3 g and 15.8 g | Paw withdrawl threshold ([2]; BL(D1), 24 hours post-FCA before dosing, 30 mg/kg group, 30 mg/kg): 15 g and 19.2 g and 18.2 g and 22.5 g and 17.8 g and 16.5 g | Paw withdrawl threshold ([2]; BL(D1), 24 hours post-FCA before dosing, 100 mg/kg group, 100 mg/kg): 12.8 g and 13.9 g and 16 g and 19.3 g and 23.51 g and 12.6 g | Paw withdrawl threshold ([2]; baseline (pre-FCA), 3 mg/kg group, individual rats, 3 mg/kg): 36.1 g and 32.4 g and 35.8 g and 33.4 g and 34.4 g and 30.9 g | Paw withdrawl threshold ([2]; baseline (pre-FCA), 10 mg/kg group, individual rats, 10 mg/kg): 28.6 g and 26.67 g and 37.9 g and 31.3 g and 39 g and 31.8 g | Paw withdrawl threshold ([2]; baseline (pre-FCA), 30 mg/kg group, individual rats, 30 mg/kg): 33.2 g and 34.9 g (2×) and 36.6 g and 35.6 g and 33.4 g | Paw withdrawl threshold ([2]; baseline (pre-FCA), 100 mg/kg group, individual rats, 100 mg/kg): 31.8 g and 26.6 g and 27.6 g and 33.33 g and 37.8 g and 31.9 g | Paw withdrawal latency (s), FIG. 18B ([2]; baseline (prior to FCA), individual rats): 29.6 s (2×) and 32.5 s and 29.8 s and 27.5 s and 31.4 s | Paw withdrawal latency (s), FIG. 18B ([2]; day 1, compound 2 25 mg/kg i.v. preemptive, individual rats, 25 mg/kg): 36.7 s and 26.7 s and 38.9 s and 25 s and 27 s and 29 s | Paw withdrawal latency (s), FIG. 18B ([2]; day 3, compound 2 25 mg/kg i.v. preemptive, individual rats, 25 mg/kg): 29.8 s and 28 s and 30 s and 27.7 s and 23.5 s and 33.8 s | Paw withdrawal latency (s), FIG. 18B ([2]; day 4, compound 2 25 mg/kg i.v. preemptive, individual rats, 25 mg/kg): 25 s and 27.23 s and 36.5 s and 31.3 s and 31.9 s and 24.3 s | reversal of FCA-induced tactile allodynia (finding in words) ([2]; rat, 3, 10, 30 and 100 mg/kg p.o. curative, 24 hours post-FCA, significant at 10, 30 and 100 mg/kg, 30 and 60 minutes): significant reversal of FCA induced tactile allodynia; also recorded: able to reverse established inflammatory tactile allodynia; also recorded: significantly reversed | FCA-induced tactile allodynia (finding in words) ([2]; rat, p.o. single dose 25 mg/kg preemptive): significantly prevented | FCA tactile allodynia (finding in words) ([2]; rat, single dose 25 mg/kg i.v. preemptive, significant 24, 48 and 72 hours post-FCA, 25 mg/kg): prevented the development; also recorded: significantly prevented | Tmax [3]: 1 h | Paw volume ([4]; 24 hrs post, compound 2 10 mg/kg p.o. preemptive, FIG. 20A, 10 mg/kg): 2.7 mL and 2.6 mL and 3.1 mL | Paw volume ([4]; 24 hrs post, compound 2 30 mg/kg p.o. preemptive, FIG. 20A, 30 mg/kg): 2.1 mL and 2.9 mL and 3 mL | Paw volume ([4]; 48 hrs post, compound 2 10 mg/kg p.o. preemptive, FIG. 20A, 10 mg/kg): 2.6 mL and 2.5 mL and 2.9 mL and 3.2 mL | Paw volume ([4]; 48 hrs post, compound 2 30 mg/kg p.o. preemptive, FIG. 20A, 30 mg/kg): 2.5 mL and 2.8 mL and 3.1 mL and 2.7 mL and 2.9 mL | Paw volume ([4]; FCA/Compound 2, 10 mg/kg p.o., dosed 24 hours post-FCA, Pre-FCA (baseline), individual animals): 1.7 mL (2×) and 1.6 mL (2×) and 1.8 mL (3×) and 1.5 mL | Paw volume ([4]; FCA/Compound 2, 10 mg/kg p.o., 1 hr (D2), individual animals): 2.7 mL (3×) and 2.9 mL and 2.5 mL and 2.8 mL and 2.3 mL and 3.2 mL | Paw volume ([4]; FCA/Compound 2, 10 mg/kg p.o., 1 hr, individual animals): 2.9 mL (2×) and 3.1 mL (2×) and 2.7 mL (2×) and 2.8 mL and 3 mL | Paw volume ([4]; FCA/Compound 2, 10 mg/kg p.o., 3 hrs (D2), individual animals): 2.7 mL (2×) and 3 mL and 2.6 mL and 2.5 mL and 2.8 mL and 2.4 mL and 3.2 mL | Paw volume ([4]; FCA/Compound 2, 10 mg/kg p.o., 3 hrs, individual animals): 2.9 mL (4×) and 3.1 mL and 2.7 mL and 2.4 mL and 3.2 mL | Paw volume ([4]; FCA/Compound 2, 10 mg/kg p.o., Pre-Drug (D2), individual animals): 2.7 mL (2×) and 3 mL and 2.6 mL (2×) and 2.8 mL and 2.4 mL and 3.2 mL | Paw volume ([4]; FCA/Compound 2, 10 mg/kg p.o., Pre-Drug, individual animals): 3.1 mL (2×) and 2.8 mL (2×) and 2.9 mL and 3 mL and 2.7 mL and 3.4 mL | Paw volume ([4]; FCA/Compound 2, 30 mg/kg p.o., dosed 24 hours post-FCA, Pre-FCA (baseline), individual animals): 1.7 mL (4×) and 1.8 mL (2×) and 1.5 mL and 1.9 mL | Paw volume ([4]; FCA/Compound 2, 30 mg/kg p.o., 1 hr, individual animals): 2.6 mL | Paw volume ([4]; FCA/Compound 2, 30 mg/kg p.o., Pre-Drug, individual animals): 2.8 mL (2×) and 3 mL (2×) and 2.9 mL and 3.2 mL and 2.6 mL and 3.4 mL | Paw volume ([4]; Pre-FCA, compound 2 10 mg/kg p.o. preemptive group, individual rats, FIG. 20A, 10 mg/kg): 1.7 mL (2×) and 1.6 mL and 1.8 mL (2×) and 1.9 mL | Paw volume ([4]; Pre-FCA, compound 2 30 mg/kg p.o. preemptive group, individual rats, FIG. 20A, 30 mg/kg): 1.6 mL and 1.7 mL (2×) and 1.9 mL and 1.8 mL (2×) | FCA-induced edema (finding in words) ([4]; rat, 10 and 30 mg/kg p.o., preemptive and curative (24 hours post-FCA)): did not have a statistically significant effect; also recorded: did not affect edema | development of hyperalgesia following incisional surgery [5]: inhibits the development of hyperalgesia following incisional surgery
